# Experimental data taken from paper PMC12802961 (Journal of Antimicrobial Chemotherapy, 2025).
# Tests used:
# [1] = Protein binding, equilibrium dialysis chamber, LC-MS/MS; type: in vitro ADME
# Source text: […]. […] […].
# . […] Free drug concentrations were used in all calculations. […]
# [2] = Single-dose plasma pharmacokinetics, s.c., infected neutropenic mice; settings: cefepime; one-compartment model; serum/plasma, s.c., infected mice
# Procedure: All animal procedures were carried out in the Animal Facility for Medical and Scientific Purposes of the University General Hospital Attikon (EL 25 BIO 014), Athens, Greece. […] Outbred female CD-1 mice, obtained by the Hellenic Pasteur Institute, Greece, and Charles River Laboratories Models and Services, Germany, were used at the age of 7–8 weeks, weighing 20–25 g. The animals were allowed to acclimatize for at least 5 days upon arrival and were housed under standard conditions with water and food supplied ad libitum. […] Infection was induced (Day 0) by intramuscular injection of 0.05 mL bacterial inoculum of approximately 10^5–10^6 cfu/thigh.
# The dose was administered s.c. (0.1 mL) 2 h after infection (t = 0 h). Blood samples were collected in 1 mL K3EDTA tubes through orbital sinus bleeding under isoflurane anaesthesia. Animals were immediately euthanized through cervical dislocation and blood samples taken at timepoints 0, 0.08, 0.25, 0.5, 0.75, 1, 1.5, 2, 3, 4, 6, and 8 h after single dose injection. Blood samples were centrifuged immediately after collection in a pre-cooled centrifuge, and plasma was stored at −80°C. For each timepoint two animals were euthanized in order to have duplicates for each condition.
# The Cmax values were calculated from raw data and the AUCs were calculated using the trapezoidal rule. […] Equations used in the program were the classical polyexponential equations Ci(t) = PolyExp(i, n, t), where i = number of the compartments, n = number of doses and t = time from last dose (http://www.boomer.org/c/p4/c19/c19.pdf). The %fT > Ct was then determined using a bisectional rootfinder for intersections between simulated curve and concentration, and calculating the difference between intersection values. Free drug concentrations were used in all calculations.
# For taniborbactam, a population pharmacokinetic model was developed using nonlinear mixed-effects modelling (NONMEM). The analysis was performed on the natural logarithm of the concentrations using the FOCE method with INTERACTION. All mice were assumed to weigh 1kg, resulting in PK parameters corresponding to a per kg base. […] Tools used to evaluate and visualize the model were RStudio (v0.98.1049), R (v3.1.2), XPose (v4.5.3) and PsN (v4.6.0), all with the graphical interface Pirana (v2.9.0).
# To determine the structural pharmacokinetic model 1-, 2- and 3-compartment models were tested. Pharmacokinetic parameters were estimated in terms of central and peripheral volume of distribution (Vc and Vp), clearance (CL), and intercompartmental clearance (Q). Addition of interindividual variability (IPV), described using an exponential eta model, was evaluated for each pharmacokinetic parameter. The covariance between values for IPV was estimated using a […] matrix. Residual variability between observed and predicted plasma concentrations was described using an additional error model for logarithmically transformed data. The minimum value of objective function (OFV) was used as a criterion for model selection. […] Model adequacy was further evaluated by using various residual plots (‘goodness-of-fit’ plots) and values of random effects in variances. In the second step relationships between pharmacokinetic parameters and potential covariates were investigated. […] Dose covariates were modelled by using an exponential model, place of infection was modelled proportionally. Criteria for the inclusion of covariates in the model were the OFV, results of graphical evaluation of the parameter-covariate relationship and the decrease in parameter variability.
# Three procedures were used to validate the final model. As an internal validation method, a bootstrap resampling method was used. Bootstrap datasets (n=1000) were generated by sampling randomly from the original dataset with replacement. Parameters were estimated for each of the replicate datasets using the developed model.
# K. pneumoniae 59 = experiment: Neutropenic murine thigh infection model; type: in vivo, Klebsiella pneumoniae
# Procedure: (§1) All dosing regimens were performed in at least two animals per dosing regimen.
# (§2) At t = 0 h, 2 h after infection, two mice were humanely euthanized to determine the initial number of cfu/thigh just before treatment. […] Subsequently, thighs were homogenized using the Ultra-Turrax homogenizer (IKA Labortechnik, Germany). For each thigh 10-fold dilution series were prepared and 3 × 10 µL per dilution were plated (Chromagar, bioMérieux, NL). The following day, colonies were counted and the number of cfu/thigh was calculated.
# (§3) Free drug concentrations were used in all calculations.
# P. aeruginosa 106 = experiment: Neutropenic murine thigh infection model; type: in vivo, Pseudomonas aeruginosa
# Procedure: as §1, §2, §3
# P. aeruginosa 132 = experiment: Neutropenic murine thigh infection model; type: in vivo, Pseudomonas aeruginosa
# Procedure: as §1, §2, §3
# E. coli 52 = experiment: Neutropenic murine thigh infection model; type: in vivo, Escherichia coli
# Procedure: as §1, §2, §3
# [3] = cefepime monotherapy q2h, extrapolated
# [4] = cefepime monotherapy q2h s.c. 24 h
# [5] = cefepime monotherapy, extrapolated
smiles,measurement,setting,value
"CO/N=C(\C(=O)N[C@@H]1C(=O)N2C(C(=O)[O-])=C(C[N+]3(C)CCCC3)CS[C@H]12)c1csc(N)n1 [cefepime, Cefepime]",fraction unbound,[1],0.8
same,absorbance rate Ka,[2],15 h⁻¹
same,Stasis: q2h dose,K. pneumoniae 59; cefepime monotherapy,117.8 mg/kg
same,Stasis: %ƒT > MIC,K. pneumoniae 59; cefepime monotherapy q2h,0.0%
same,1 log10 kill: %ƒT > MIC,"K. pneumoniae 59; cefepime monotherapy q2h, belongs to extrapolated dose",15.9%
same,"1 log10 kill: Total daily dose, mg/kg",K. pneumoniae 59; [3],(4371.3) mg/kg
same,Stasis: Total daily dose,K. pneumoniae 59; [4],1413.4 mg/kg
same,"1 log10 kill: q2h dose, mg/kg",K. pneumoniae 59; [5],(364.0) mg/kg
same,Cefepime %fT > potMIC,"K. pneumoniae 59; cefepime q2h 4 mg/kg, potMIC 0.5 mg/L (with 4 mg/L taniborbactam)",69.30%
same,1 log10 kill: %ƒT > MIC,P. aeruginosa 106; [3],(47.4) %
same,"1 log10 kill: Total daily dose, mg/kg",P. aeruginosa 106; [3],(3484.4) mg/kg
same,Stasis: %ƒT > MIC,P. aeruginosa 106; [3],(36.9) %
same,"Stasis: Total daily dose, mg/kg","P. aeruginosa 106; cefepime monotherapy q2h s.c. 24 h, extrapolated",(1901.6) mg/kg
same,"1 log10 kill: q2h dose, mg/kg",P. aeruginosa 106; [5],(290.4) mg/kg
same,"Stasis: q2h dose, mg/kg",P. aeruginosa 106; [5],(158.5) mg/kg
same,Cefepime %fT > MIC,"P. aeruginosa 106; cefepime q2h 64 mg/kg, MIC 32 mg/L",22.10%
same,"1 log10 kill: q2h dose, mg/kg",P. aeruginosa 132; cefepime monotherapy,59.9 mg/kg
same,1 log10 kill: %ƒT > MIC,P. aeruginosa 132; cefepime monotherapy q2h,32.4%
same,"1 log10 kill: Total daily dose, mg/kg",P. aeruginosa 132; cefepime monotherapy q2h,718.3 mg/kg
same,Stasis: %ƒT > MIC,P. aeruginosa 132; cefepime monotherapy q2h,8.9%
same,Stasis: Total daily dose,P. aeruginosa 132; [4],180.8 mg/kg
same,Cefepime %fT > potMIC,"P. aeruginosa 132; cefepime q2h 8 mg/kg, potMIC 1 mg/L (with 4 mg/L taniborbactam)",46.10%
same,1 log10 kill: %ƒT > MIC,E. coli 52; [3],(53.9) %
same,"1 log10 kill: Total daily dose, mg/kg",E. coli 52; [3],(5237.2) mg/kg
same,Stasis: %ƒT > MIC,E. coli 52; [3],(36.5) %
same,"Stasis: Total daily dose, mg/kg","E. coli 52; cefepime monotherapy q2h s.c. 24 h, extrapolated, Emax model",(1857.2) mg/kg
same,"1 log10 kill: q2h dose, mg/kg",E. coli 52; [5],(436.4) mg/kg
same,"Stasis: q2h dose, mg/kg",E. coli 52; [5],(154.8) mg/kg
same,Cefepime %fT > potMIC,"E. coli 52; cefepime q2h 4 mg/kg, potMIC 0.06 mg/L (with 4 mg/L taniborbactam)",80.70%
